Laboratory results reported in publication PMC6597546, “Identification of a potent benzoxaborole drug candidate for treating cryptosporidiosis” (Nature Communications, 2019).
Several values for one entry are separate records, joined by “and”; a condition that tells them apart may be missing. Equal values may be shown once.

Tested on: C. parvum (Bunch Grass Farms Iowa isolate)
Assay: Neonatal calf model of cryptosporidiosis
Assay type: in vivo
Parameters: key to Oocyst Shedding, individual calves / Oocyst Shedding: C. parvum abundance per gram of fecal dry matter (qPCR); key to Fecal Consistency Score, individual calves / Fecal Consistency Score: score 1 = normal, 3 = severely abnormal
Settings: for Fecal Consistency Score / Oocyst Shedding: 10 mg/kg every 12 h with delayed start
Description: All calf efficacy studies were performed as previously described. These studies were approved by the University of Vermont Institutional animal Care and Use Committee, and conducted in compliance with the USDA-APHIS “Blue Book”, available at www.aphis.usda.gov/animal-welfare. Holstein bull calves were acquired at birth from Green Mountain Dairy (Sheldon, VT), given synthetic colostrum with 200 g of IgG (Land O’Lakes, Ardent Hills, MO) and bovine coronavirus and Escherichia coli antibodies (First Defense Bolus, Immuncell Corporation, Portland, ME) within 2 h of birth, and transported to UVM. Calves were group-housed initially, and infected at 24–48 h of age during an interruption in bottle feeding by oral administration of ∼5 × 10^7 C. parvum Iowa isolate oocysts (Bunch Grass Farms, Deary, ID) suspended in 10 mL of water. They were then moved to individual raised pens, and observed twice daily at feeding times for clinical signs, which were quantified according to a previously described standardized scoring rubric. Data on fecal consistency, dehydration and overall health were collected, in each case with a score of 1 being normal and 3 being severely abnormal (scoring rubric in Supplementary Table 2). Clinical microbiologic studies for adventitious infectious agents including Salmonella culture, aerobic bacterial culture with E. coli genotyping, rotavirus, and coronavirus testing were performed on all calves at the onset of diarrhea by the Cornell Animal Health Diagnostic Center (Ithaca, NY). Animals with severe diarrhea or other symptoms were supported aggressively, including with administration of oral electrolytes, intravenous fluids and flunixin meglumine (Banamine, Merck) as needed. […] Daily fecal samples were obtained from collections bins located under each pen. Fecal samples used for parasite quantification were dried at 90 °C until stable in weight, and C. parvum abundance per gram of fecal dry matter was measured using qPCR and the primers Cp18s forward and Cp18s reverse.

CC1(C)OB(O)c2cc(NC(=O)c3ccc(-n4cccn4)cc3Cl)ccc21 [AN7973]
Fecal Consistency Score (Calf 1, Day 2): 1.67
Oocyst Shedding (Calf 1, Day 2): 4028
Fecal Consistency Score (Calf 1, Day 3): 2
Oocyst Shedding (Calf 1, Day 3): 3180923
Fecal Consistency Score (Calf 1, Day 4): 2.33
Oocyst Shedding (Calf 1, Day 4): 4800342
Fecal Consistency Score (Calf 1, Day 5): 1.5
Oocyst Shedding (Calf 1, Day 5): 120115
Fecal Consistency Score (Calf 1, Day 6): 1
Oocyst Shedding (Calf 1, Day 6): 5946
Fecal Consistency Score (Calf 1, Day 7): 1
Oocyst Shedding (Calf 1, Day 7): 4811
Fecal Consistency Score (Calf 1, Day 8): 1
Oocyst Shedding (Calf 1, Day 8): 154
Fecal Consistency Score (Calf 1, Day 9): 1
Oocyst Shedding (Calf 1, Day 9): 1
Fecal Consistency Score (Calf 1, Day 10): 1
Oocyst Shedding (Calf 1, Day 10): 1
Fecal Consistency Score (Calf 1, Day 11): 1
Oocyst Shedding (Calf 1, Day 11): 164
Fecal Consistency Score (Calf 1, Day 12): 1
Oocyst Shedding (Calf 1, Day 12): 1032
Fecal Consistency Score (Calf 1, Day 13): 1
Oocyst Shedding (Calf 1, Day 13): 1
Fecal Consistency Score (Calf 1, Day 14): 1
Oocyst Shedding (Calf 1, Day 14): 1
Fecal Consistency Score (Calf 2, Day 0): 1
Oocyst Shedding (Calf 2, Day 0): 1
Fecal Consistency Score (Calf 2, Day 1): 3
Oocyst Shedding (Calf 2, Day 1): 15983
Fecal Consistency Score (Calf 2, Day 2): 2
Oocyst Shedding (Calf 2, Day 2): 572309
Fecal Consistency Score (Calf 2, Day 3): 2.67
Oocyst Shedding (Calf 2, Day 3): 9928800
Fecal Consistency Score (Calf 2, Day 4): 3
Oocyst Shedding (Calf 2, Day 4): 10753010
Fecal Consistency Score (Calf 2, Day 5): 2.33
Oocyst Shedding (Calf 2, Day 5): 89411
Fecal Consistency Score (Calf 2, Day 6): 1
Oocyst Shedding (Calf 2, Day 6): 36783
Fecal Consistency Score (Calf 2, Day 7): 1
Oocyst Shedding (Calf 2, Day 7): 6676
Fecal Consistency Score (Calf 2, Day 8): 1
Oocyst Shedding (Calf 2, Day 8): 2648
Fecal Consistency Score (Calf 2, Day 9): 1
Oocyst Shedding (Calf 2, Day 9): 2147
Fecal Consistency Score (Calf 2, Day 10): 1
Oocyst Shedding (Calf 2, Day 10): 401
Fecal Consistency Score (Calf 2, Day 11): 1
Oocyst Shedding (Calf 2, Day 11): 10
Fecal Consistency Score (Calf 2, Day 12): 1
Oocyst Shedding (Calf 2, Day 12): 1
Fecal Consistency Score (Calf 2, Day 13): 1
Oocyst Shedding (Calf 2, Day 13): 1
Fecal Consistency Score (Calf 2, Day 14): 1
Oocyst Shedding (Calf 2, Day 14): 1
Fecal Consistency Score (Calf 3, Day 0): 1
Oocyst Shedding (Calf 3, Day 0): 1
Fecal Consistency Score (Calf 3, Day 1): 3
Oocyst Shedding (Calf 3, Day 1): 4675
Fecal Consistency Score (Calf 3, Day 2): 2.33
Oocyst Shedding (Calf 3, Day 2): 376713
Fecal Consistency Score (Calf 3, Day 3): 2.5
Oocyst Shedding (Calf 3, Day 3): 3074178
Fecal Consistency Score (Calf 3, Day 4): 3
Oocyst Shedding (Calf 3, Day 4): 1097033
Fecal Consistency Score (Calf 3, Day 5): 2.33
Oocyst Shedding (Calf 3, Day 5): 172967
Fecal Consistency Score (Calf 3, Day 6): 1.5
Oocyst Shedding (Calf 3, Day 6): 10727
Fecal Consistency Score (Calf 3, Day 7): 1
Oocyst Shedding (Calf 3, Day 7): 1
Fecal Consistency Score (Calf 3, Day 8): 1
Oocyst Shedding (Calf 3, Day 8): 363
Fecal Consistency Score (Calf 3, Day 9): 1
Oocyst Shedding (Calf 3, Day 9): 1134
Fecal Consistency Score (Calf 3, Day 10): 1
Oocyst Shedding (Calf 3, Day 10): 624
Fecal Consistency Score (Calf 3, Day 11): 1
Oocyst Shedding (Calf 3, Day 11): 1
Fecal Consistency Score (Calf 3, Day 12): 1
Oocyst Shedding (Calf 3, Day 12): 1
Fecal Consistency Score (Calf 3, Day 13): 1
Oocyst Shedding (Calf 3, Day 13): 28
Fecal Consistency Score (Calf 3, Day 14): 1
Oocyst Shedding (Calf 3, Day 14): 1
Oocyst Shedding, individual calves (10 mg/kg every 24 h on days 2–8, Day 0): 100 and 331 and 774
Oocyst Shedding, individual calves (10 mg/kg every 24 h on days 2–8, Day 1): 6698 and 100 (2×)
Oocyst Shedding, individual calves (10 mg/kg every 24 h on days 2–8, Day 3): 644594 and 196913 and 724661
Oocyst Shedding, individual calves (10 mg/kg every 24 h on days 2–8, Day 4): 119580 and 31776 and 1355
Oocyst Shedding, individual calves (10 mg/kg every 24 h on days 2–8, Day 5): 573 and 17468 and 8981
Oocyst Shedding, individual calves (10 mg/kg every 24 h on days 2–8, Day 7): 67293 and 6611 and 7598
Oocyst Shedding, individual calves (10 mg/kg every 24 h on days 2–8, Day 9): 54864 and 100 and 1163
Oocyst Shedding, individual calves (10 mg/kg every 24 h on days 2–8, Day 10): 139951 and 100 and 1010
reduction of total burden of fecal C. parvum shedding (AUC) (bovine, in vivo): over 90%
reduction of fecal C. parvum shedding rate (first three days of treatment): nearly five logs
Fecal Consistency Score, individual calves (scale 1 normal to 3 severely abnormal, 5 mg/kg every 12 h on days 2–8, Day 0): 1
Fecal Consistency Score, individual calves (scale 1–3, 5 mg/kg every 12 h on days 2–8, Day 1): 1
Fecal Consistency Score, individual calves (scale 1–3, 5 mg/kg every 12 h on days 2–8, Day 2): 1
Fecal Consistency Score, individual calves (scale 1–3, 5 mg/kg every 12 h on days 2–8, Day 3): 1
Fecal Consistency Score, individual calves (scale 1–3, 5 mg/kg every 12 h on days 2–8, Day 4): 1
Fecal Consistency Score, individual calves (scale 1–3, 5 mg/kg every 12 h on days 2–8, Day 5): 1
Fecal Consistency Score, individual calves (scale 1–3, 5 mg/kg every 12 h on days 2–8, Day 6): 1
Fecal Consistency Score, individual calves (scale 1–3, 5 mg/kg every 12 h on days 2–8, Day 7): 1
Fecal Consistency Score, individual calves (scale 1–3, 5 mg/kg every 12 h on days 2–8, Day 8): 1
Fecal Consistency Score, individual calves (scale 1–3, 5 mg/kg every 12 h on days 2–8, Day 9): 1
Fecal Consistency Score, individual calves (scale 1–3, 5 mg/kg every 12 h on days 2–8, Day 10): 1
Fecal Consistency Score, individual calves (scale 1–3, 10 mg/kg every 24 h on days 2–8, Day 0): 1
Fecal Consistency Score, individual calves (scale 1–3, 10 mg/kg every 24 h on days 2–8, Day 1): 1
Fecal Consistency Score, individual calves (scale 1–3, 10 mg/kg every 24 h on days 2–8, Day 2, 10 mg/kg): 1.33 (2×) and 2.67
Fecal Consistency Score, individual calves (scale 1–3, 10 mg/kg every 24 h on days 2–8, Day 3, 10 mg/kg): 2 (2×) and 2.33
Fecal Consistency Score, individual calves (scale 1–3, 10 mg/kg every 24 h on days 2–8, Day 4, 10 mg/kg): 2.33 and 1.33 (2×)
Fecal Consistency Score, individual calves (scale 1–3, 10 mg/kg every 24 h on days 2–8, Day 5): 1
Fecal Consistency Score, individual calves (scale 1–3, 10 mg/kg every 24 h on days 2–8, Day 6): 1
Fecal Consistency Score, individual calves (scale 1–3, 10 mg/kg every 24 h on days 2–8, Day 7): 1
Fecal Consistency Score, individual calves (scale 1–3, 10 mg/kg every 24 h on days 2–8, Day 8): 1
Fecal Consistency Score, individual calves (scale 1–3, 10 mg/kg every 24 h on days 2–8, Day 9): 1
Fecal Consistency Score, individual calves (scale 1–3, 10 mg/kg every 24 h on days 2–8, Day 10): 1
effect on dehydration (several of the treatment regimens): significantly reduced the overall severity of dehydration
tolerability in calves (twice daily assessment of alertness, interaction, appetite): tolerated AN7973 well
